# “And” between values parts separate entries of the source, which are not always exact repeats. Equal values may be shown once. “Also recorded” adds a separate entry of the source. Square brackets hold non-standard residues; d marks the D form. Ends that are not written are not given here. Cha = N[C@@H](CC1CCCCC1)C(=O)O; Phg = N[C@H](C(=O)O)c1ccccc1; Nva = CCC[C@H](N)C(=O)O
# What was measured:
# [1] = fluorescent staining of peptide beads with NBD-labeled dichlorophenol; assay type: binding; settings: 30% 1,4-dioxane solvent (FIG. 10)
# Method: About 2.5 million peptide beads were used for screening, the number being equal to the number of combinations of all the sequences of peptides comprising 5 amino acid residues. The primary screening was conducted in a screening solvent (a 10 mM phosphate buffer containing 20% 1,4-dioxane (pH: 8)) containing 4 nM NBD-labeled dichlorophenol. 20 ml of the buffer solution was first mixed with about 50 mg of the peptide beads, and the mixture was subsequently incubated overnight, with mild shaking, in a petri dish at room temperature. A fraction of fluorescently stained peptide beads observed by a fluorescent microscope was collected with a micropipette. These peptide beads were transferred into a micro test tube containing 50 or 100% 1,4-dioxane, and were then incubated overnight at room temperature, i.e., washing with 50 or 100% dioxane overnight at room temperature. Peptide beads which were unable to be washed, on which the NBD-labeled dichlorophenol was unspecifically adsorbed, were excluded. Peptide beads that could be washed were re-stained with 1 nM NBD-labeled dichlorophenol. In order to measure the fluorescence intensity, fluorescent microscope images of the peptide beads were recorded with a digital camera (FIG. 4).
# (§1) 1 ml of a screening solvent containing 4 nM NBD-labeled dichlorophenol and 0-100 nM of a substance to be detected was prepared in a glass vial, and then three dioxin-binding peptide beads were put into the screening solvent. The resulting mixture was incubated, with mild shaking, overnight at room temperature, and then fluorescent microscope images thereof were recorded. The average fluorescence intensity of each bead was calculated from the recorded images. Calculation of the average fluorescence intensity was performed with an image analysis/measurement software, “Image-Pro Plus” (Planetron, Inc.). When competitive binding of the dichlorophenol with a dioxin occurs, the fluorescence intensity of each bead decreases depending on the concentration of the dioxin. Such a method of measuring the dioxin concentration utilizing the quenching phenomenon of the beads was termed “the method of competitive dioxin binding on bead”.
# A library of twenty-one kinds of single amino acid-substituted peptides shown in FIG. 8 was constructed in order to evaluate the importance of each amino acid of the obtained oligopeptides, and to optimize the sequences. […]
# (§2) Tests were conducted on the above-mentioned peptides by the method of competitive dioxin binding on bead described in Example 2, using a 30% 1,4-dioxane solvent. […] All the four kinds of single residue-substituted peptides were evaluated for dioxin binding capability by the method of competitive dioxin binding on bead.
# [2] = method of competitive dioxin binding on bead (2,3,7,8-TeCDD); settings: for capability of detecting 2,3,7,8-TeCDD compared with DB2: 30% 1,4-dioxane solvent
# Method: as §1
# The DB2 peptide was evaluated for affinity to dioxins by the method of competitive dioxin binding on bead. FIGS. 6 (A) and 6 (B) show the results of tests conducted in a solvent containing 30% 1,4-dioxane. The relationship between dioxin concentration and average fluorescence intensity is plotted in FIG. 6 (A). As shown in the figure, declining sigmoid curves, which are characteristic of the competitive binding, were obtained. The curves were fitted using the four-parameter logistic equation, y=(a−d)/(1+(x/c)^b)+d, which is an empirical equation typically employed in competitive ELISA (Eiji Ishikawa, “Enzyme Immunoassay (3rd Edition)”, IGAKU-SHOIN).
# (§3) The quenching ratio was calculated using the equation shown below. The beads were evaluated for affinity with the substances detected based on the values of quenching ratios.
# (§4) quenching ratio=(fluorescence intensity 1−fluorescence intensity 2)/fluorescence intensity 1×100(%)
# The binding constants of the DB2 peptide were calculated using the results of the above equation. Fitting was performed based on the theoretical equation for one-to-one binding of a receptor with a ligand as shown below:
# as §2
# [3] = secondary screening of peptide beads: fluorescence decrease by competition with 2,3,7-TriCDD; assay type: binding; settings: 1 nM NBD-labeled dichlorophenol, 10 mM phosphate buffer pH 8 with 20% 1,4-dioxane
# Source text: A peptide library was constructed by split-and-pool synthesis, one of the typical techniques of combinatorial chemistry, using beads for peptide solid-phase synthesis. According to the present method, a peptide of one kind of sequence is synthesized on a single bead. […] Primary screening involved screening of fluorescently stained peptide beads, using a composite (FIG. 3) obtained by labeling 3,4-dichlorophenol, which has an analogous structure to dioxins, with NBD as a fluorescent material.
# About 2.5 million peptide beads were used for screening, the number being equal to the number of combinations of all the sequences of peptides comprising 5 amino acid residues. […] In order to measure the fluorescence intensity, fluorescent microscope images of the peptide beads were recorded with a digital camera (FIG. 4).
# The aforementioned washable peptide beads were put into 1 ml of a screening solvent containing 1 nM NBD-labeled dichlorophenol and 10 or 100 nM 2,3,7-trichlorodibenzo-p-dioxin (2,3,7-TriCDD). The mixture was incubated overnight with mild shaking at room temperature, and was then transferred onto a glass petri dish, and fluorescent microscope images thereof were recorded. The obtained images were compared with the images recorded in the previous test so as to screen decreased beads. […]
# [4] = method of competitive dioxin binding on bead (2,3,7-TriCDD)
# Method: 1 ml of a screening solvent containing 4 nM NBD-labeled dichlorophenol and 0-100 nM of a substance to be detected was prepared in a glass vial, and then three dioxin-binding peptide beads were put into the screening solvent. The resulting mixture was incubated, with mild shaking, overnight at room temperature, and then fluorescent microscope images thereof were recorded. The average fluorescence intensity of each bead was calculated from the recorded images. Calculation of the average fluorescence intensity was performed with an image analysis/measurement software, “Image-Pro Plus” (Planetron, Inc.). When competitive binding of the dichlorophenol with a dioxin occurs, the fluorescence intensity of each bead decreases depending on the concentration of the dioxin. […]
# The DB2 peptide was evaluated for affinity to dioxins by the method of competitive dioxin binding on bead. […] The relationship between dioxin concentration and average fluorescence intensity is plotted in FIG. 6 (A). […]
# as §3, §4
# The binding constants of the DB2 peptide were calculated using the results of the above equation. […]
# [5] = 30% 1,4-dioxane, 4 nM NBD-labeled dichlorophenol, 0-100 nM substance
# [6] = peptide beads, solvent containing 30% 1,4-dioxane, fit of quenching ratio to one-to-one binding equation
Substance,"fluorescence intensity when stained, compared with DB2 peptide [1]","capability of detecting 2,3,7,8-TeCDD compared with DB2 [2]","2,3,7,8-TeCDD concentration that can be detected ([2]; 30% 1,4-dioxane)","quenching by competition with 10 nM 2,3,7-TriCDD [3]",also measured
Cha Leu Asp Gln Val ([Cha]LDQV) [SEQ ID No. 5],equal to or greater than that of the DB2 peptide,equal to or more than that of DB2,,,
Phe Leu Asp Gln Leu (FLDQL) [SEQ ID No. 23],equal to or greater than that of the DB2 peptide,equal to or more than that of DB2,,,
Phe Leu Asp Gln Nva (FLDQ[Nva]) [SEQ ID No. 24],equal to or greater than that of the DB2 peptide,equal to or more than that of DB2,,,
Phe Leu Asp Gln Phg (FLDQ[Phg]) [SEQ ID No. 22],equal to or greater than that of the DB2 peptide,equal to or more than that of DB2,0.15 nM and 0.05 ng/ml,,"detection sensitivity to 2,3,7,8-TeCDD relative to DB2 ([2]; 30% dioxane solvent): about ten times greater than that of DB2; also recorded: about ten times higher than that of DB2"
Phe-Leu-Asp-Gln-Ile (FLDQI) [DB1],,equal to or more than that of DB2,,confirmed,
Phe-Leu-Asp-Gln-Val (FLDQV) [DB2],,,1 nM and about 0.3 ng/ml,confirmed,"concentration-dependent quenching by 2,3,7,8-TeCDD [2, 5]: Concentration-dependent quenching was observed; affinity (binding constant Ka) for 2,3,7,8-TeCDD [2, 6]: 1.7e+09 M⁻¹; concentration-dependent quenching by 2,3,7-TriCDD [4, 5]: Concentration-dependent quenching was observed; affinity (binding constant Ka) for 2,3,7-TriCDD [4, 6]: 2e+08 M⁻¹"
